Laboratory results from PMC10247784, “Physiological activation of human and mouse bitter taste receptors by bile acids” (Communications Biology, 2023).
“And” between values parts separate entries of the source, which are not always exact repeats. Equal entries are not always repeated.

Molecular target: T1, human TAS2R14 (Homo sapiens, UniProt Q9NYV8)
T1 construct: expressed in transfected cells; host or cells: HEK293T-Gα16gust44
T1 sequence (Q9NYV8 1-317): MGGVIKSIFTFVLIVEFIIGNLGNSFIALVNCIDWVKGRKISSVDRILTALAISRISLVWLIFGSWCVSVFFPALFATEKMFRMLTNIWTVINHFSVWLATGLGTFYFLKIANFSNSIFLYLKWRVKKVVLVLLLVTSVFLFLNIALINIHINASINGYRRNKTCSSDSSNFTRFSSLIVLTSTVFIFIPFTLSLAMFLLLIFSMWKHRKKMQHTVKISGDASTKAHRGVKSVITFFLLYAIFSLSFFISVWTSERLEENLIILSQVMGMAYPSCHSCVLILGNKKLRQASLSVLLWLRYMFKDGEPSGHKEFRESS
Assay: Calcium imaging assay (FLIPR), HEK293T-Gα16gust44 cells transfected with human TAS2R14
Type: cell-based
Settings: for RLU: TAS2R14 trace
Outline: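 Read-out is Fluo-4 fluorescence change (ΔF/F) after automated application of bile acids (DMSO stocks) to transiently transfected cells. Values are corrected for empty-vector cells and normalized to buffer. Dose-response from three independent experiments in duplicate; threshold concentration set at p < 0.01 versus mock.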

SMILES: C[C@H](CCC(=O)NCCS(=O)(=O)O)[C@H]1CC[C@H]2[C@@H]3[C@H](O)C[C@@H]4C[C@H](O)CC[C@]4(C)[C@H]3C[C@H](O)[C@]12C [Taurocholic Acid, taurocholic acid]
- Efficacy = maximal amplitude (ΔF/F) (TAS2R14, bile acids, mean): 0.2246
- Efficacy (maximal amplitude ΔF/F), individual data points (TAS2R14, bile acids, single replicates, listed as TCA): 0.1896 and 0.238 and 0.2462
- Δ F/F (TAS2R14, conc. 0,01 mM): -0.01734
- Δ F/F (TAS2R14, conc. 0,1 mM): -0.007315
- Δ F/F (TAS2R14, conc. 0,03 mM): -0.005139
- Δ F/F (TAS2R14, conc. 0,3 mM): 0.03332
- Δ F/F (TAS2R14, conc. 0,001 mM): -0.02529
- Δ F/F (TAS2R14, conc. 1 mM): 0.2246
- Δ F/F (TAS2R14, conc. 0,003 mM): -0.01812
- RLU (Time (s) 0): 0 RLU
- RLU (Time (s) 2 (Taurocholic Acid 2.016)): 15.4574 RLU
- RLU (Time (s) 4 (Taurocholic Acid 4.016)): -13.3747 RLU
- RLU (Time (s) 6 (Taurocholic Acid 6.016)): -38.8354 RLU
- RLU (Time (s) 8 (Taurocholic Acid 8.016)): -33.6332 RLU
- RLU (Time (s) 12 (Taurocholic Acid 12.016)): -53.4595 RLU
- RLU (Time (s) 14 (Taurocholic Acid 14.016)): -55.3521 RLU
- RLU (Time (s) 16 (Taurocholic Acid 16.016)): -65.1913 RLU
- RLU (Time (s) 18 (Taurocholic Acid 18.016)): -43.8232 RLU
- RLU (Time (s) 18.797 (Chenodeoxycholic Acid 18.765)): -59.7397 RLU
- RLU (Time (s) 20.797 (Chenodeoxycholic Acid 20.781)): -48.6104 RLU
- RLU (Time (s) 22.797 (Chenodeoxycholic Acid 22.781)): -37.2936 RLU
- RLU (Time (s) 24.797 (Chenodeoxycholic Acid 24.781)): -25.1873 RLU
- RLU (Time (s) 26.797 (Chenodeoxycholic Acid 26.781)): -30.6749 RLU
- RLU (Time (s) 28.797 (Chenodeoxycholic Acid 28.781)): 4.524 RLU
- RLU (Time (s) 30.797 (Chenodeoxycholic Acid 30.781)): -8.18 RLU
- RLU (Time (s) 32.797 (Chenodeoxycholic Acid 32.781)): 30.1537 RLU
- RLU (Time (s) 34.797 (Chenodeoxycholic Acid 34.781)): 70.0865 RLU
- RLU (Time (s) 36.797 (Chenodeoxycholic Acid 36.781)): 98.6425 RLU
- RLU (Time (s) 38.797 (Chenodeoxycholic Acid 38.781)): 134.228 RLU
- RLU (Time (s) 40.797 (Chenodeoxycholic Acid 40.781)): 192.709 RLU
- RLU (Time (s) 42.797 (Chenodeoxycholic Acid 42.781)): 232.913 RLU
- RLU (Time (s) 44.797 (Chenodeoxycholic Acid 44.781)): 243.453 RLU
- RLU (Time (s) 46.797 (Chenodeoxycholic Acid 46.781)): 297.017 RLU
- RLU (Time (s) 48.797 (Chenodeoxycholic Acid 48.781)): 343.953 RLU
- RLU (Time (s) 50.797 (Chenodeoxycholic Acid 50.781)): 379.622 RLU
- RLU (Time (s) 52.797 (Chenodeoxycholic Acid 52.781)): 398.833 RLU
- RLU (Time (s) 54.797 (Chenodeoxycholic Acid 54.781)): 459.728 RLU
- RLU (Time (s) 56.797 (Chenodeoxycholic Acid 56.781)): 470.92 RLU
- RLU (Time (s) 58.797 (Chenodeoxycholic Acid 58.781)): 515.163 RLU
- RLU (Time (s) 60.797 (Chenodeoxycholic Acid 60.781)): 529.36 RLU
- RLU (Time (s) 62.797 (Chenodeoxycholic Acid 62.781)): 543.404 RLU
- RLU (Time (s) 64.797 (Chenodeoxycholic Acid 64.781)): 572.542 RLU
- RLU (Time (s) 66.797 (Chenodeoxycholic Acid 66.781)): 570.299 RLU
- RLU (Time (s) 68.797 (Chenodeoxycholic Acid 68.781)): 602.865 RLU
- RLU (Time (s) 70.797 (Chenodeoxycholic Acid 70.781)): 609.474 RLU
- RLU (Time (s) 72.797 (Chenodeoxycholic Acid 72.781)): 663.572 RLU
- RLU (Time (s) 74.797 (Chenodeoxycholic Acid 74.781)): 688.158 RLU
- RLU (Time (s) 76.797 (Chenodeoxycholic Acid 76.781)): 696.58 RLU
- RLU (Time (s) 78.797 (Chenodeoxycholic Acid 78.781)): 702.313 RLU
- RLU (Time (s) 80.797 (Chenodeoxycholic Acid 80.781)): 724.676 RLU
- RLU (Time (s) 82.797 (Chenodeoxycholic Acid 82.781)): 729.222 RLU
- RLU (Time (s) 84.797 (Chenodeoxycholic Acid 84.781)): 755.668 RLU
- RLU (Time (s) 86.797 (Chenodeoxycholic Acid 86.781)): 758.133 RLU
- RLU (Time (s) 88.797 (Chenodeoxycholic Acid 88.781)): 801.791 RLU
- RLU (Time (s) 90.797 (Chenodeoxycholic Acid 90.781)): 813.667 RLU
- RLU (Time (s) 92.797 (Chenodeoxycholic Acid 92.781)): 823.99 RLU
- RLU (Time (s) 94.797 (Chenodeoxycholic Acid 94.781)): 849.724 RLU
- RLU (Time (s) 96.797 (Chenodeoxycholic Acid 96.781)): 840.46 RLU
- RLU (Time (s) 98.797 (Chenodeoxycholic Acid 98.781)): 832.423 RLU
- RLU (Time (s) 100.797 (Chenodeoxycholic Acid 100.781)): 870.888 RLU
- RLU (Time (s) 102.797 (Chenodeoxycholic Acid 102.781)): 887.784 RLU
- RLU (Time (s) 104.797 (Chenodeoxycholic Acid 104.781)): 895.487 RLU
- RLU (Time (s) 106.797 (Chenodeoxycholic Acid 106.781)): 886.141 RLU
- RLU (Time (s) 108.797 (Chenodeoxycholic Acid 108.781)): 931.883 RLU
- RLU (Time (s) 110.797 (Chenodeoxycholic Acid 110.781)): 935.64 RLU
- RLU (Time (s) 112.797 (Chenodeoxycholic Acid 112.781)): 971.794 RLU
- RLU (Time (s) 114.797 (Chenodeoxycholic Acid 114.781)): 962.409 RLU
- RLU (Time (s) 116.797 (Chenodeoxycholic Acid 116.781)): 993.706 RLU
- RLU (Time (s) 118.797 (Chenodeoxycholic Acid 118.781)): 1000.54 RLU
- RLU (Time (s) 120.797 (Chenodeoxycholic Acid 120.781)): 1025.82 RLU
- RLU (Time (s) 122.797 (Chenodeoxycholic Acid 122.781)): 1039.5 RLU
- RLU (Time (s) 124.797 (Chenodeoxycholic Acid 124.781)): 1041.39 RLU
- RLU (Time (s) 126.797 (Chenodeoxycholic Acid 126.781)): 1050.25 RLU
- RLU (Time (s) 128.797 (Chenodeoxycholic Acid 128.781)): 1043.78 RLU
- RLU (Time (s) 130.797 (Chenodeoxycholic Acid 130.781)): 1042.75 RLU
- RLU (Time (s) 132.797 (Chenodeoxycholic Acid 132.781)): 1039.88 RLU
- RLU (Time (s) 134.797 (Chenodeoxycholic Acid 134.781)): 1050.77 RLU
- RLU (Time (s) 136.797 (Chenodeoxycholic Acid 136.781)): 1036.12 RLU
- RLU (Time (s) 137.562 (Taurocholic Acid 137.563, Chenodeoxycholic Acid 137.546)): 1048.18 RLU
- RLU (Time (s) 143.578 (Taurocholic Acid 143.563, Chenodeoxycholic Acid 143.546)): 1008.4 RLU
- RLU (Time (s) 149.578 (Taurocholic Acid 149.563, Chenodeoxycholic Acid 149.546)): 998.739 RLU
- RLU (Time (s) 155.578 (Taurocholic Acid 155.563, Chenodeoxycholic Acid 155.546)): 977.028 RLU
- RLU (Time (s) 161.578 (Taurocholic Acid 161.563, Chenodeoxycholic Acid 161.546)): 958.674 RLU
- RLU (Time (s) 167.578 (Taurocholic Acid 167.563, Chenodeoxycholic Acid 167.546)): 918.668 RLU
- RLU (Time (s) 173.578 (Taurocholic Acid 173.563, Chenodeoxycholic Acid 173.546)): 888.356 RLU
- RLU (Time (s) 179.578 (Taurocholic Acid 179.563, Chenodeoxycholic Acid 179.546)): 847.479 RLU
- RLU (Time (s) 191.578 (Taurocholic Acid 191.563, Chenodeoxycholic Acid 191.546)): 745.479 RLU
- RLU (Time (s) 197.578 (Taurocholic Acid 197.563, Chenodeoxycholic Acid 197.546)): 696.127 RLU
- RLU (Time (s) 209.578 (Taurocholic Acid 209.563, Chenodeoxycholic Acid 209.546)): 643.487 RLU
- RLU (Time (s) 221.578 (Taurocholic Acid 221.563, Chenodeoxycholic Acid 221.546)): 526.781 RLU
- RLU (Time (s) 233.578 (Taurocholic Acid 233.563, Chenodeoxycholic Acid 233.546)): 416.225 RLU
- RLU (Time (s) 239.578 (Taurocholic Acid 239.563, Chenodeoxycholic Acid 239.546)): 342.018 RLU
- RLU (Time (s) 245.578 (Taurocholic Acid 245.563, Chenodeoxycholic Acid 245.546)): 303.535 RLU
- RLU (Time (s) 293.578 (Taurocholic Acid 293.563, Chenodeoxycholic Acid 293.546)): 127.213 RLU
- RLU (Time (s) 299.578 (Taurocholic Acid 299.563, Chenodeoxycholic Acid 299.546)): 108.412 RLU
- RLU (Time (s) 305.578 (Taurocholic Acid 305.563, Chenodeoxycholic Acid 305.546)): 98.929 RLU
- RLU (Time (s) 311.578 (Taurocholic Acid 311.563, Chenodeoxycholic Acid 311.546)): 88.6159 RLU
- RLU (Time (s) 317.578 (Taurocholic Acid 317.563, Chenodeoxycholic Acid 317.546)): 79.3923 RLU
- RLU (Time (s) 323.578 (Taurocholic Acid 323.563, Chenodeoxycholic Acid 323.546)): 80.4704 RLU
- RLU (Time (s) 329.578 (Taurocholic Acid 329.563, Chenodeoxycholic Acid 329.546)): 68.4196 RLU
- RLU (Time (s) 335.578 (Taurocholic Acid 335.563, Chenodeoxycholic Acid 335.546)): 88.4103 RLU
- RLU (Time (s) 341.578 (Taurocholic Acid 341.563, Chenodeoxycholic Acid 341.546)): 53.5929 RLU
- RLU (Time (s) 347.578 (Taurocholic Acid 347.563, Chenodeoxycholic Acid 347.546)): 48.7046 RLU
- RLU (Time (s) 353.578 (Taurocholic Acid 353.563, Chenodeoxycholic Acid 353.546)): 68.797 RLU
- RLU (Time (s) 359.578 (Taurocholic Acid 359.563, Chenodeoxycholic Acid 359.546)): 47.7517 RLU
- Activation threshold concentration TAS2R14 (lowest concentration with significantly increased fluorescence vs empty vector (p < 0.01)): 300 µM
